The assay deals with PANC-1. As to the kind of experiment: Inhibition of autophagy in human PANC-1 cells cultured in nutrient-deprived medium assessed as accumulation of LC3-2 expression at 25 uM after 6 hrs by Western blot analysis relative to control. The assay is classed as functional. (A western blot detects proteins with antibodies after separation by electrophoresis.)

The source of these data is ChEMBL document CHEMBL4680108, “Ancistrolikokine E, a 5,8'-Coupled Naphthylisoquinoline Alkaloid, Eliminates the Tolerance of Cancer Cells to Nutrition Starvation by Inhibition of the Akt/mTOR/Autophagy Signaling Pathway” (2018).

For the compound `CCN(CC)CCCC(C)Nc1ccnc2cc(Cl)ccc12` (stereo unspecified) [CHLOROQUINE], the “fold change (FC)” value worked out at 2.
